The record followed here is patent publication US10138260B2, “Compounds of phosphinanes and azaphosphinanes, a process for their preparation and pharmaceutical compositions containing them” (LES LABORATOIRES SERVIER, priority 2016, dated 2018).

For the experiment, the target named is T1, TAFIa (Homo sapiens, UniProt Q96IY4).
T1 sequence (Q96IY4 115-423): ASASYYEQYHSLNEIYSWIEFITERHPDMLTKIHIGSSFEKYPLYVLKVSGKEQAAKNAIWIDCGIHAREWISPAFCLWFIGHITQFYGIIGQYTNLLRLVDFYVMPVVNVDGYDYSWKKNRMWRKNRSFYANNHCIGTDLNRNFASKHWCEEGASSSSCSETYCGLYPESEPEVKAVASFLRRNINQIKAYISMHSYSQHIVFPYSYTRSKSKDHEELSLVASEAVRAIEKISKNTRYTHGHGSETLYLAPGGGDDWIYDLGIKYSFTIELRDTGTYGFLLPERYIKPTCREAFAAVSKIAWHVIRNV
The experiment can be described thus: Inhibition of TAFIa (hippuryl-Arg test). The experiment is classed as biochemical. The note with it: TAFIa 2 nM, hippuryl-arginine 5 mM, 45 minutes, relative to control containing the carrier; for inhibition at 0.01 µM: compound at 10 nM; for inhibition at 0.02 µM: compound at 20 nM. The procedure, abridged:
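TAFI (4 nM) activated 20 min by thrombin/thrombomodulin with 10 mM calcium, stopped with PPACK; TAFIa (2 nM) then incubated 45 min with compound and 5 mM hippuryl-arginine in Hepes buffer, pH 7.4, 28 °C. Absorbance at 405 nm, blank-corrected; % inhibition versus carrier at 10 and 20 nM.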

For `NCCCC[C@@]1(C(=O)O)CN(Cc2ccc(F)cc2-c2cnc3ccccn23)CCP1(=O)O` [Example 220, (3S)-3-(4-AMINOBUTYL)-1-[(4-FLUORO-2-IMIDAZO[1,2-A]PYRIDIN-3-YLPHENYL)METHYL]-4-HYDROXY-4-OXO-1,4-AZAPHOSPHINANE-3-CARBOXYLIC ACID], testing at 0.01 µM gave an inhibition of 83% and the inhibition – broadly, the change of the read-out against control, counted positive when it falls – at 0.02 µM was found to be 97%.

The molecule `NCCCC[C@@]1(C(=O)O)CN(Cc2ccc(F)cc2-c2cncnc2)CCP1(=O)O` [Example 234, (3S)-3-(4-AMINOBUTYL)-1-[(4-FLUORO-2-PYRIMIDIN-5-YLPHENYL)METHYL]-4-HYDROXY-4-OXO-1,4-AZAPHOSPHINANE-3-CARBOXYLIC ACID] registered an inhibition at 0.01 µM of 68% and an inhibition at 0.02 µM of 79%.

`Cn1nccc1-c1cc(O)ccc1CN1CCP(=O)(O)[C@](CCCCN)(C(=O)O)C1` [Example 247, (3S)-3-(4-AMINOBUTYL)-4-HYDROXY-1-[[4-HYDROXY-2-(2-METHYLPYRAZOL-3-YL)PHENYL]METHYL]-4-OXO-1,4-AZAPHOSPHINANE-3-CARBOXYLIC ACID]: 0.01 µM produced 85% inhibition and the inhibition at 0.02 µM stood at 89%.

Turning to `NCCCC[C@@]1(C(=O)O)CN(Cc2ccccc2-c2cccc3ccccc23)CCP1(=O)O` [Example 199, (3S)-3-(4-AMINOBUTYL)-4-HYDROXY-1-[(2-NAPHTHALEN-1-YLPHENYL)-METHYL]-4-OXO-1,4-AZAPHOSPHINANE-3-CARBOXYLIC ACID], the inhibition at 0.01 µM was 54% and the inhibition at 0.02 µM is 73%.

The molecule `NCCCC[C@@]1(C(=O)O)CN(Cc2ccc(F)cc2-c2cccc(O)c2)CCP1(=O)O` [Example 238, (3S)-3-(4-AMINOBUTYL)-1-[[4-FLUORO-2-(3-HYDROXYPHENYL)PHENYL]-METHYL]-4-HYDROXY-4-OXO-1,4-AZAPHOSPHINANE-3-CARBOXYLIC ACID] showed an inhibition at 0.01 µM of 70% and an inhibition at 0.02 µM of 87%.

`NCCCCC1(C(=O)O)CN(Cc2ccccc2-c2cccc(-c3ccccc3)c2)CCP1(=O)O` (stereo not drawn) [Example 49, 3-(4-AMINOBUTYL)-4-HYDROXY-4-OXO-1-[[2-(3-PHENYLPHENYL)PHENYL]-METHYL]-1,4-AZAPHOSPHINANE-3-CARBOXYLIC ACID] returned an inhibition at 0.01 µM of 60% and an inhibition at 0.02 µM of 73%.

`COc1cccc(-c2ccccc2CN2CCP(=O)(O)[C@](CCCCN)(C(=O)O)C2)c1OC` [Example 207, (3S)-3-(4-AMINOBUTYL)-1-[[2-(2,3-DIMETHOXYPHENYL)PHENYL]METHYL]-4-HYDROXY-4-OXO-1,4-AZAPHOSPHINANE-3-CARBOXYLIC ACID]: the inhibition at 0.01 µM was found to be 71% and the inhibition at 0.02 µM is 85%.

With `Cn1cncc1-c1cc(F)ccc1CN1CCP(=O)(O)[C@](CCCCN)(C(=O)O)C1` [Example 217, (3S)-3-(4-AMINOBUTYL)-1-[4-FLUORO-2-(1-METHYL-1H-IMIDAZOL-5-YL)BENZYL]-4-HYDROXY-4-OXO-1,4-AZAPHOSPHINANE-3-CARBOXYLIC ACID], at 0.01 µM the inhibition was 66% and 0.02 µM produced 83% inhibition.

Turning to `NCCCCC1(C(=O)O)CN(Cc2ccccc2-c2nccs2)CCP1(=O)O` (stereo not drawn) [Example 108, 3-(4-AMINOBUTYL)-4-HYDROXY-4-OXO-1-[[2-(1,3-THIAZOL-2-YL)PHENYL]-METHYL]-1,4-AZAPHOSPHINANE-3-CARBOXYLIC ACID], the inhibition at 0.01 µM stood at 25% and 0.02 µM produced 29% inhibition.

`NCCCC[C@@]1(C(=O)O)CN(Cc2ccccc2-c2ccc3ccccc3c2)CCP1(=O)O` [Example 209, (3S)-3-(4-AMINOBUTYL)-4-HYDROXY-1-[(2-NAPHTHALEN-2-YLPHENYL)-METHYL]-4-OXO-1,4-AZAPHOSPHINANE-3-CARBOXYLIC ACID] showed an inhibition at 0.01 µM of 76% and an inhibition at 0.02 µM of 87%.

The molecule `NCCCC[C@@]1(C(=O)O)CN(Cc2ccc(Cl)cc2-c2ccc(F)cc2)CCP1(=O)O` [Example 210, (3S)-3-(4-AMINOBUTYL)-1-[[4-CHLORO-2-(4-FLUOROPHENYL)PHENYL]METHYL]-4-HYDROXY-4-OXO-1,4-AZAPHOSPHINANE-3-CARBOXYLIC ACID] gave an inhibition at 0.01 µM of 71% and an inhibition at 0.02 µM of 79%.

The molecule `NCCCCC1(C(=O)O)CN(Cc2ccccc2-c2ccccc2-c2ccccc2)CCP1(=O)O` (stereo not drawn) [Example 114, 3-(4-AMINOBUTYL)-4-HYDROXY-4-OXO-1-[[2-(2-PHENYLPHENYL)PHENYL]-METHYL]-1,4-AZAPHOSPHINANE-3-CARBOXYLIC ACID] showed an inhibition at 0.01 µM of 42% and an inhibition at 0.02 µM of 51%.

As to `COc1cccc(-c2cc(F)ccc2CN2CCP(=O)(O)[C@](CCCCN)(C(=O)O)C2)c1` [Example 185, (3S)-3-(4-AMINOBUTYL)-1-[[4-FLUORO-2-(3-METHOXYPHENYL)PHENYL]-METHYL]-4-HYDROXY-4-OXO-1,4-AZAPHOSPHINANE-3-CARBOXYLIC ACID], the inhibition at 0.01 µM was 69% and the inhibition at 0.02 µM was found to be 85%.

Molecule `Cc1ccc(-c2cc(O)ccc2CN2CCP(=O)(O)[C@](CCCCN)(C(=O)O)C2)cc1` [Example 223, (3S)-3-(4-AMINOBUTYL)-4-HYDROXY-1-[[4-HYDROXY-2-(4-METHYLPHENYL)-PHENYL]METHYL]-4-OXO-1,4-AZAPHOSPHINANE-3-CARBOXYLIC ACID] registered an inhibition at 0.01 µM of 71% and an inhibition at 0.02 µM of 83%.

Molecule `Cn1nccc1-c1cc(F)ccc1CN1CCP(=O)(O)[C@](CCCCN)(C(=O)O)C1` [Example 236, (3S)-3-(4-AMINOBUTYL)-1-[[4-FLUORO-2-(2-METHYLPYRAZOL-3-YL)PHENYL]-METHYL]-4-HYDROXY-4-OXO-1,4-AZAPHOSPHINANE-3-CARBOXYLIC ACID] displayed an inhibition at 0.01 µM of 81% and an inhibition at 0.02 µM of 91%.
